Entries after “also recorded” stand apart in the source; their conditions may differ. Read-outs that look alike come from different tables or passages of the source.
What was measured:
NMNAT = target: T1, NMNAT (Mus musculus, UniProt Q9EPA7); assay: Isothermal titration calorimetry (ITC); format: binding; settings: 554 μM MS0 into 25 μM protein, 25 °C
T1 construct: His-tag; made in house; host or cells: E. coli BL21-CodonPlus (DE3)-RIL
Procedure: Thermodynamic parameters of small molecule binding to protein were determined using a MicroCal VP-ITC calorimeter. NMNAT protein solutions were ultrafiltrated in Amicon Ultra-0.5 Centrifugal Filter Unit (Merck Millipore) against buffer [20 mM Tris (pH 7.5), 20 mM NaCl], which was subsequently used to prepare a matched compound solution. […] Measurements were performed at 25 °C with spacing of 90 s between injections.
Pr otei n e xp ressi on andpur ification
Prot eins were expres se d and pur ified by our pr e vi ous methods2,3. […]
The pur ity of the pr ot ein was more tha n 90% de term ine d by SDS-PAGE and Coo massi e Blue (Tiange n, C hi na) staining and f ur the r by w est ern bl ot a na lysi s (Fig. S1).
High t hrou ghput sc reen ing (HTS)
HTS was pe rfor med usi ng our previ ously repor ted method 3. 0.5 μl st oc k of each com poun d (1 mM DMSO st oc k) was transf erred to a 96-well PCR pl ate for sc ree ni ng. […] Fina lly, 85 μl mixt ur es in each well were transf erred int o a flat-bottom 96-well black plate (Greiner) , and the fluoresc enc e (F) was measured usi ng a Teca n Inf inity M200 pl ate reader (Tecan Group Lt d.) by se tting the exc itation and emissi on wave leng th to 382 nm and 445nm respe ctive ly. […]

NAMPT = settings: read-out: biochemical potency IC50; reported independently by Zheng et al. ref 19, 22; cited from earlier work
[1] = system: metastatic lung cancer cell line 95-D; assay: SRB assay in 95-D; format: cell-based, human; settings: 72 hours
Procedure: (§1) Sulfor hod am ine B p rotei n st ai ning (SRB) assay
(§2) Cell pr oliferat ion was eva lua ted by sul for hod amine B pr ot ein st aini ng (SRB) assa y10-12.
(§3) Briefly, cel ls were se ede d int o 96-well pl ates, cul tur ed overni ght , and trea ted with correspond ing com poun ds for 72 h. Cells were the n fixe d with 10% trichl or oa cetic aci d and st ained with sul for hoda mine B (Sigm a). Sul for hoda mine B in the cells was di sso lved in 10 mmol/L Tris-HCl and was measured at 515 nm usi ng a multiw ell spect ropho tometer (VERSA max, Mol ecul ar Devi ces, Sunnyva le, CA). The inhi bi tion rat e on cell pr olif eratio n was cal culated for each well as (A515contr ol cells-A 515tr eated cells)/A515contr ol cells×100 % (A515:
(§4) OD va lue at 515 nm ). The averag e IC50 va lue s were de termine d by Logit method from at leas t t hr eei nde pe nde nt test s.

HCT116 cells = assay: SRB assay in HCT116; format: cell-based; settings: Homo sapiens, HCT-116, read-out: anti-proliferation IC50, initial screen
Procedure: as §1, §2, §3, §4

[2] = system: ovarian cancer cell line A2780; assay: SRB assay in A2780; format: cell-based, human; settings: A2780, 72 hours
Procedure: as §1, §2, §3, §4

[3] = system: osteosarcoma cell line U2OS; assay: SRB assay in U2OS; format: cell-based, human; settings: 72 hours
Procedure: as §1, §2, §3, §4

HepG2 cells = assay: Sulforhodamine B protein staining (SRB) assay in HepG2; format: cell-based, human; settings: for IC50: Homo sapiens
Procedure: as §1, §2, §3, §4

Huh7-C cells = assay: CCK-8 assay in stem-like human hepatoma cell line Huh7-C; format: cell-based; settings: 60 h, read-out: CCK-8 assay in Huh7-C: IC50
Procedure: Cellc ount ing k it-8 (CCK-8) assa y
Cell vi ability was de termine d by ou r previ ous method9 usi ng the Cell Counting Kit-8 (CCK -8, […]
10 μl CCK-8 sol ution was adde d to the cul ture medium and inc ub ated at 37 °C for 1 h. Th e absor banc e at 450 nm (A450) was de tected by a pl ate reade r. Each e xperi ment w as carr ied out i n t riplic ate i n thr ee r eplic ate w ells.

T1 sequence (Q9EPA7 whole entry): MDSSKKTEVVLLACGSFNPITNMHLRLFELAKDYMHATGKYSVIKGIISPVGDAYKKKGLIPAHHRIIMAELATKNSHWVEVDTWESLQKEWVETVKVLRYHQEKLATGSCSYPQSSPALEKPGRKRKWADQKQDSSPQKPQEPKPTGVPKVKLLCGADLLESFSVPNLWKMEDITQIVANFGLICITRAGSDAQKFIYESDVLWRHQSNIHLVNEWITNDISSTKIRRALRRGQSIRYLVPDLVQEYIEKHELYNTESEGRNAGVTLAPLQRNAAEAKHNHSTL

For `O=S(=O)(c1ccc(NC(=S)NCc2cccnc2)cc1)N1CCCCC1` [MS0], the “interaction with NMNAT by ITC” value (NMNAT) is given as “did not detect an interaction; also recorded: does not show detectable interaction”, the IC50 (NAMPT) is given as […] and the “growth inhibition (SRB, in words)” value [1] is given as “potent growth inhibition”. The IC50 (HCT116 cells) was under 5000 nM, the “growth inhibition (SRB, in words)” value [2] was “potent growth inhibition” and the “growth inhibition (SRB, in words)” value [3] was “potent growth inhibition”. For the same compound, the “growth inhibition (SRB, in words)” value (HepG2 cells; HepG2, 72 hours) was “potent growth inhibition”, the IC50 (HepG2 cells; HepG2, 72 h, read-out: SRB assay in HepG2: IC50, HepG2, second test, 2-fold concentration gradient, 72 hours) was about 3000 nM and the IC50 (HepG2 cells; HepG2, read-out: anti-proliferation IC50, initial screen, HepG2, SRB, 10-fold concentration gradient) was under 5000 nM. The IC50 (Huh7-C cells) was 722 ± 36.3 nM.

From paper PMC4603696, “Discovery and characterization of novel small-molecule inhibitors targeting nicotinamide phosphoribosyltransferase” (Scientific Reports, 2015)
